Data on five molecules can be found in patent US20230149303A1, “BUCCAL AND ENTERIC DELIVERY OF FATTY ACIDS IN FOODS AND BEVERAGES” (priority 2020, published 2023).

Where two headings read alike, the source gives them in different places.

For series [1] the following is noted: in vivo; cited from earlier work.
For series [2] the following is noted: mucosal quick release, retained in the mouth for several seconds; cited from earlier work.
Another series has as its system CB2 receptors. The series is described as follows: estimated affinity relative to CBD. The format is binding. The source says:
Because CB2 receptors have a low affinity for CBD, large doses of CBD have increasingly advantageous pharmacological effects. However, CBD is relatively expensive, so the ratio of CBD to other components is more prone to cost/efficacy trade-offs than other components of the formulation. Alternatives can skimp on CBD and even drop the ratio of CBD-to-caffeine below the recommended 1:1 ratio, which should have acceptable effects so long as the caffeine is not in such a high dosage that it causes jitters.
A greater proportion of CBD may be desirable for the purpose of binding to theorized CBD3 receptors or other presently poorly defined receptors with less affinity for CBD. A high dose of CBD, over 100 mg up to less than 250 mg can have a sedative effect that may be effective for certain individuals, though it is unlikely desirable to reach 250 mg, which is approaching the liver enzyme inhibition dose. Although, currently marketed energy drinks have as much as 250 mg caffeine, it would be difficult to fit that much caffeine into a nurdle while maintaining a 1:1 ratio of CBD-to-caffeine (not to mention the 1:2 ratio of caffeine-to-theanine), so the upper ranges of CBD become largely irrelevant in this particular product due to volumetric constraints. […]

Series [3] in a line: bioavailability after oral, mucosal/buccal or enteric delivery. The class given is in vivo. The method, then:
B6 helps the body produce neurotransmitters (e.g., serotonin); it can block glutamate and help the brain learn to calm. […] B6 can also be delivered enterically with nearly 100% bioavailability, as well.
In a specific implementation, microencapsulated CBD is provided as an analgesic in an edible toothpaste. In this specific implementation, 20 mg of the CBD is microencapsulated for buccal delivery to act as a localized analgesic in the mouth. CBD is degraded in the stomach but, as was discussed above, CBD is readily absorbed in mucosa. Although it is recognized not all patients will follow best practices, bioavailability estimates assume the amount of time spent brushing is 2 minutes, which is the time span over which the edible toothpaste remains in the mouth and which is long enough to make almost all of CBD formulated for buccal delivery bioavailable. Accordingly, when the product is used as directed, the CBD remains in the mouth long enough to achieve over 90% bioavailability. Thus, the amount of buccally delivered CBD can be added to that of enterically delivered CBD to determine a total systemic dose.
As with the edible toothpaste described above, a first portion of the CBD is formulated for buccal delivery and a second portion of the CBD is formulated for enteric delivery. […] CBD is degraded in the stomach but, as was discussed above, CBD is readily absorbed in mucosa. […]

For series [4] the following is noted: cited from earlier work.
For a further series, the target named is T1, TrpV1 receptor (Homo sapiens, UniProt Q8NER1).
T1 construct: It typically takes over 20 minutes for CBD absorbed through mucosa to provide significant pain relief; from tissue; host or cells: oral mucosa / body of the user (in vivo)
As to conditions: absorbed through mucosa; cited from earlier work.

T1 sequence (Q8NER1 whole entry): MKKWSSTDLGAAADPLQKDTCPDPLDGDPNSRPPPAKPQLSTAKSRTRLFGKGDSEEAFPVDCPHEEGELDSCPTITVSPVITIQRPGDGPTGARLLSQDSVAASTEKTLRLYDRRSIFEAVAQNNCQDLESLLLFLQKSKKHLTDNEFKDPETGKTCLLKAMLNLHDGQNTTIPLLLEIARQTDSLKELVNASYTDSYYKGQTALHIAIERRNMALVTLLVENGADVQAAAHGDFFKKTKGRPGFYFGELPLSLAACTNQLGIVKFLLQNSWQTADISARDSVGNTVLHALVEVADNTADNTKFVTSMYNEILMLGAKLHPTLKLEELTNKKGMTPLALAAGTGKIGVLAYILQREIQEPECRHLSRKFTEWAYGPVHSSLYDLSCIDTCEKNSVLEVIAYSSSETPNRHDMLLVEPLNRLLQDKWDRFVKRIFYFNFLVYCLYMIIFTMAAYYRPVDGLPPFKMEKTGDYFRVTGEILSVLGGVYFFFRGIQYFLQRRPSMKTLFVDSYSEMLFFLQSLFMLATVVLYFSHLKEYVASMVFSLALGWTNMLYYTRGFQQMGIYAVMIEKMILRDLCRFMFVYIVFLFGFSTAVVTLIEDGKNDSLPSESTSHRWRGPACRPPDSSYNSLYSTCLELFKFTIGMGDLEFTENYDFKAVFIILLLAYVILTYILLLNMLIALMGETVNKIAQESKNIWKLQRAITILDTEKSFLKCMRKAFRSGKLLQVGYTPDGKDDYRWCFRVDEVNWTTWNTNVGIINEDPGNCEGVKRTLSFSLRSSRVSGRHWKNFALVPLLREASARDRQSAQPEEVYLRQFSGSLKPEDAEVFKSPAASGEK

Consider `CC1CCC(C(C)C)C(O)C1` (stereo not drawn) [menthol], for which, in series [1], the lethal dose is on record as not below 50 mg/kg.

As for `CCCCCCCCCCCCCCCC(=O)OCc1cnc(C)c(OC(=O)CCCCCCCCCCCCCCC)c1COC(=O)CCCCCCCCCCCCCCC` [pyridoxine tripalmitate], in series [2], the bioavailable result is “over 90%”.

Take 2-Lineoleoyl-glycerol: in the series on CB2 receptors, the “affinity relative to CBD” value was ~1,000 times.

In the case of 2-Palmitolyl-glycerol, the “affinity relative to CBD” value in the series with CB2 receptors was ~1,000 times.

For the molecule `C=C(C)[C@@H]1CCC(C)=C[C@H]1c1c(O)cc(CCCCC)cc1O` [CBD], the bioavailability entry was “over 90%” in series [3] (buccal delivery from edible toothpaste, estimate assumes 2 minutes brushing) and “over 90%” in series [3] (buccal delivery from mouthwash, estimate assumes 30 seconds to one minute in the mouth). The “half-life in the bloodstream” value in series [4] (frequent user) was 120 to 312 h; in series [4] (infrequent user) it was “about 1.3 days”. Also, the “time to provide significant pain relief” value at TrpV1 receptor is on record as “over 20 minutes”.
